Assays:
α and αβ (1:1) GluClRs = test: IVM-induced tonic current in heteroculture, α and αβ data pooled; assay type: cell-based, H. contortus; conditions: continuous 5 nM IVM
Experimental: After validating the heterocultures as a reliable preparation for investigating IPSCs mediated by GluClRs, we made synaptic recordings while continuously applying IVM (5 nM) to cells similarly transfected with α and αβ GluClRs. […] Firstly, there was a steady downward deflection in baseline current over the course of the recording that was not different between cells expressing α (Fig 5A) and αβ (1:1, Fig 5B) GluClRs. […] Changes to the kinetic properties of IPSCs were also observed upon IVM application (Fig 5C–5G). These were analysed 15 minutes after the commencement of the IVM application to ensure that the effects had equilibrated. […] The decay time constant for α GluClRs slowed from 40 ± 2 ms to 100 ± 3 ms (n = 6) and for αβ GluClRs from 17 ± 2 ms to 72 ± 4 ms (n = 6, Fig 5E). The increase in activation times were from 4.6 ± 0.7 ms to 19 ± 1 ms for α GluClRs and from 3.0 ± 0.3 ms to 10 ± 1 ms for the αβ heteromers (Fig 5F). […] A comparison of the magnitude changes of IPSC parameters was also made between the two receptor isoforms.
cDNAs encoding the α (avr-14b) (pcDNA 3.1+) or β (pUNIV) GluClR subunits of H. contortus were nuclear injected into oocytes (NASCO, WI USA) or transfected into HEK293AD cells (CellBank Australia) using a calcium phosphate-DNA co-precipitate method. […]

αβ (1:1) GluClRs = αβ (1:1) GluClRs (Haemonchus contortus, UniProt O46124+P91730); test: Single channel recording, outside-out patches, αβ (1:1) GluClRs; assay type: cell-based, H. contortus; conditions: 2 μM glutamate plus 5 nM IVM
Excerpt: To explore whether a similar mechanism applies to β-containing GluClRs, we recorded single receptor currents in excised patches from cells transfected with either the α and β subunits (1:1) or the β subunit alone. […] By contrast, patches from cells transfected with the β subunit alone invariably opened to an amplitude of 0.4 pA (Fig 6C). Amplitude histograms confirmed two amplitude levels for αβ GluClRs and a single amplitude for the β GluClRs (Fig 6D). […] We infer that the αβ GluClRs that open to 0.7 pA likely contain a greater proportion of β subunits. This is consistent with β GluClRs having the smallest amplitude and α GluClRs having the greatest amplitude (1.8 pA) under similar recording conditions. The calculated conductance values for the corresponding amplitudes for αβ GluClRs was 15.2 pS and 8.9 pS and for the β GluClRs was 5.1 pS.
Single-channel currents were recorded from outside-out excised patches at a clamped potential of −70 mV. The single channel conductance was calculated by dividing the mean current by the net driving force at a clamped potential of ‐70 mV, after accounting for reversal and liquid junction potentials. Excised patches were continuously perfused via a gravity-fed double-barrelled glass tube, which contained extracellular bath solution containing (in mM), 140 NaCl, 5 KCl, 1 MgCl2, 2 CaCl2, 10 HEPES, and 10 D-glucose and titrated to pH 7.4. Glutamate and IVM were dissolved in this extracellular solution. Recording electrodes were pulled from borosilicate glass (G150F-3; Warner Instruments), coated with a silicone elastomer (Sylgard-184; Dow Corning) and heat-polished to a final tip resistance of 4–15 MΩ when filled with an intracellular solution containing (in mM) 145 CsCl, 2 MgCl2, 2 CaCl2, 10 HEPES, and 5 EGTA, pH 7.4. […] A 10 mM stock of IVM (Sigma-Aldrich) was dissolved in 100% DMSO and kept frozen at ‐20°C. Fresh working stocks of IVM at 5 nM were prepared by dissolving the appropriate quantity directly in extracellular solution. 100% DMSO when dissolved in extracellular solution alone at the same concentration as was present in working solutions containing 5 nM IVM had no effect on patches excised from cells transfected with GluClRs or from untransfected cells.
Currents were recorded using an Axopatch 200B amplifier (Molecular Devices), filtered at 5 kHz and digitized at 20 kHz using Clampex (pClamp 10 suite, Molecular Devices) via a Digidata 1440A digitizer.
Group data were analysed in SigmaPlot 13.0 using one-way ANOVAs, where p < 0.05 was taken as the significance threshold and expressed as mean ± SEM. Tests for normally distributed data are built into the SigmaPlot software. Confocal images were captured and analysed with Zen 2012 SP2 (Zeiss) software. Oocyte concentration-response data were fit to a Hill equation to obtain an EC50 and Hill co-efficient for each oocyte recording. These parameters were then averaged across multiple oocyte experiments of the same type. Single channel recordings were analysed in QuB software. […] Patches yielded between 30–250 individual active periods. […] The selected critical times eliminated periods of receptor desensitisation while retaining singe receptor active periods. Mean active period duration and intra-activation open probability was estimated from each patch. Group means were obtained by averaging across multiple patches for each recording condition.

Sequence of αβ (1:1) GluClRs (P91730 19-432): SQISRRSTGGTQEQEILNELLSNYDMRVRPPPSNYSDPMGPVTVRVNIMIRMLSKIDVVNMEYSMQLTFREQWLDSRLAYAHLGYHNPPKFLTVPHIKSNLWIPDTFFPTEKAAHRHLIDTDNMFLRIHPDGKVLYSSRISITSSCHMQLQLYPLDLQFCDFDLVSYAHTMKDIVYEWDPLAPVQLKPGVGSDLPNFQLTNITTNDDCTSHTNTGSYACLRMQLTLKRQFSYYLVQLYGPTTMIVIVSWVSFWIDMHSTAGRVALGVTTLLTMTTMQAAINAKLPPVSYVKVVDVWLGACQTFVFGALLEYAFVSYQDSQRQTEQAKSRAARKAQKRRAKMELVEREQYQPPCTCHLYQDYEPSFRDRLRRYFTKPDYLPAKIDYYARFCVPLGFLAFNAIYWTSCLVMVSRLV
Sequence of αβ (1:1) GluClRs (O46124 entry or part of it): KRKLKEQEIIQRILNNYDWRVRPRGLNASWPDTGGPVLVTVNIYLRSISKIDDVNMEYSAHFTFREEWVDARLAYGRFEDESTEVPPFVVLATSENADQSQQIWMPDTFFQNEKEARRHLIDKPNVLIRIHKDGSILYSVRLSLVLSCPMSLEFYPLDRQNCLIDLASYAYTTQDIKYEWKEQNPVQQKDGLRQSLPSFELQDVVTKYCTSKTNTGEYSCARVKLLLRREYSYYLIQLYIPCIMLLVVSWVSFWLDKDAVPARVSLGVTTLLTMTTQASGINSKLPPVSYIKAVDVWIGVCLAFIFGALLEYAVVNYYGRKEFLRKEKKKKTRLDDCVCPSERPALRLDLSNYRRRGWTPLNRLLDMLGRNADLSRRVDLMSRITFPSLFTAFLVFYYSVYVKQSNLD

SMILES: CC[C@H](C)[C@H]1O[C@]2(CC[C@@H]1C)C[C@@H]1C[C@@H](C/C=C(\C)[C@@H](O[C@H]3C[C@H](OC)[C@@H](O[C@H]4C[C@H](OC)[C@@H](O)[C@H](C)O4)[C@H](C)O3)[C@@H](C)/C=C/C=C3\CO[C@@H]4[C@H](O)C(C)=C[C@@H](C(=O)O1)[C@]34O)O2 [IVM, Ivermectin]
- tonic current fitted time constant (α and αβ (1:1) GluClRs): 483 ± 72 s
- tonic current mean amplitude (α and αβ (1:1) GluClRs): 304 ± 54 pA
- increase in mean active period duration compared to 2 μM glutamate alone (αβ (1:1) GluClRs): over 20 fold
- increase in mean active period duration compared to 3 mM glutamate (αβ (1:1) GluClRs): 6 fold
- intra-activation open probability (PO) (αβ (1:1) GluClRs): 0.83 ± 0.02
- mean active period duration (αβ (1:1) GluClRs; pooled): 876 ± 178 ms

— publication PMC6368337, “GluClR-mediated inhibitory postsynaptic currents reveal targets for ivermectin and potential mechanisms of ivermectin resistance” (PLoS Pathogens, 2019)
